Structures can show the parent of a compound that is named as a salt.

One assay deals with hNav1.7 (Homo sapiens (Human), UniProt Q15858). The assay can be described thus: Tritiated sulfonamide competitive binding to membranes from cells expressing hNav1.7 and the β1 subunit.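 Further: Filter-bound radioactivity counted by liquid scintillation, nonspecific binding defined with excess unlabelled ligand, IC50 fitted to percent inhibition of specific binding.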
Sequence of hNav1.7 (Q15858 other isoform, or with tags, fused parts or gaps): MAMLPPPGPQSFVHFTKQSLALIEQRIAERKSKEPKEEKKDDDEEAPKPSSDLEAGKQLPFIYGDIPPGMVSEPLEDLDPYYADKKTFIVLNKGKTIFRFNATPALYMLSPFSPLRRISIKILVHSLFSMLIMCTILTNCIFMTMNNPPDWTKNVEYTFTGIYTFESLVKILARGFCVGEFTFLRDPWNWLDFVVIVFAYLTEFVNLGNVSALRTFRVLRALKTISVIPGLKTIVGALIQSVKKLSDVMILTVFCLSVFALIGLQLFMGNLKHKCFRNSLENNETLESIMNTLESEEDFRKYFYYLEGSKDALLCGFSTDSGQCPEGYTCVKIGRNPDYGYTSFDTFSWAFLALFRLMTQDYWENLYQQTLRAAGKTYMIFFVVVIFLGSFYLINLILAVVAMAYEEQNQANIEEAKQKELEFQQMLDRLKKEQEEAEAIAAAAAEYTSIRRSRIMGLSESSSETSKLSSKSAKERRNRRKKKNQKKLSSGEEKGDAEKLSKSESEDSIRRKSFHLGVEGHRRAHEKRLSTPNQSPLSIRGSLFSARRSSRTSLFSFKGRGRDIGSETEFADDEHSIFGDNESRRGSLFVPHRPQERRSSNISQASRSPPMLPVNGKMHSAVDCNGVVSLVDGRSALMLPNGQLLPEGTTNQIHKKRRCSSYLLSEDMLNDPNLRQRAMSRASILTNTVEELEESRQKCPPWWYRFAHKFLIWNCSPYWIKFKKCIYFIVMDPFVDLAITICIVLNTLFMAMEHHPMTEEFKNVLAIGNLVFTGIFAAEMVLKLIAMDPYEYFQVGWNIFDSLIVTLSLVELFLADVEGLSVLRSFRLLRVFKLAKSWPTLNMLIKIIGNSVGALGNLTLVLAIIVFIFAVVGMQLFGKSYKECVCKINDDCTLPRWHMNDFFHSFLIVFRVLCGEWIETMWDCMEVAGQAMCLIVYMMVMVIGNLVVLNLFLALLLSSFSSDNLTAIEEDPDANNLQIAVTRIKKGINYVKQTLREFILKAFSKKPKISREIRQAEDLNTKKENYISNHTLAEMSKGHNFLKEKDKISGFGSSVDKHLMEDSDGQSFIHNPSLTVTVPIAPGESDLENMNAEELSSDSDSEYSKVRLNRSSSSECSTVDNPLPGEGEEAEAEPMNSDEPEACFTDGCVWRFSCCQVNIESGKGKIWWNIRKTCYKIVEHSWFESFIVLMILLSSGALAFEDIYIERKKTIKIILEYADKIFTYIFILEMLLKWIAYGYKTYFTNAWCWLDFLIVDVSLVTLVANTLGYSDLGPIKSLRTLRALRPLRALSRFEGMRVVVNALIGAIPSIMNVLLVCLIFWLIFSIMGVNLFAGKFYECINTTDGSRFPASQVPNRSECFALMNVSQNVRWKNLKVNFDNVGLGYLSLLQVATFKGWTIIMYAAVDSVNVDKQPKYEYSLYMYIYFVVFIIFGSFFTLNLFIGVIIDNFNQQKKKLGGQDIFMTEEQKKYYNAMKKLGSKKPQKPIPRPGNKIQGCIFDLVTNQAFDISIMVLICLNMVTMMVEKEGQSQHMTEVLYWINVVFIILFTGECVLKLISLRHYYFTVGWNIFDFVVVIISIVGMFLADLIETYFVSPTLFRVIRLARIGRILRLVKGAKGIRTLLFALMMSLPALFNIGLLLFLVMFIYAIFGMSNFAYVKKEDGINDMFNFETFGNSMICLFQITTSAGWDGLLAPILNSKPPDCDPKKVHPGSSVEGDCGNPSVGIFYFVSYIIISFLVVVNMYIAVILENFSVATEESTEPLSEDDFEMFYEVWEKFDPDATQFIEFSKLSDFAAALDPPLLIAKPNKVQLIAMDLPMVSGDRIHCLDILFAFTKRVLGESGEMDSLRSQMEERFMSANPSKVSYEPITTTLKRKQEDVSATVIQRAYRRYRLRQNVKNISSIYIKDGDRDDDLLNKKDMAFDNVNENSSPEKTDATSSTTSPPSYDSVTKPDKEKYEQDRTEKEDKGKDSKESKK
Sequence of hNav1.7 (Q07699 19-218 partner): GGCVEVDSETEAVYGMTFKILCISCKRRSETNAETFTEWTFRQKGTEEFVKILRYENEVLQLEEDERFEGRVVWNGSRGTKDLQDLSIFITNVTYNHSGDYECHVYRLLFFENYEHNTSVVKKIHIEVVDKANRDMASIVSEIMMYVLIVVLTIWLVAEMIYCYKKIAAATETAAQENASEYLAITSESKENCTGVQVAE
Conditions: not given
Molecule `O=C(NS(=O)(=O)N1CCC1)c1cc(C2CC2)c(O[C@@H]2CCCN(Cc3ccc(F)cc3)C2)cc1F` [Example 22] registered an IC50 of 0.0182 µM.

In turn, `CS(=O)(=O)NC(=O)c1cc(C2CC2)c(CN2CCC(S(=O)(=O)c3cc(Cl)cc(Cl)c3)CC2)cc1F` [Example 532, 5-cyclopropyl-4-((4-((3,5-dichlorophenyl)sulfonyl)piperidin-1-yl)methyl)-2-fluoro-N-(methylsulfonyl)benzamide, trifluoroacetic acid salt] came in with an IC50 of 0.221 µM.

As for `CS(=O)(=O)NC(=O)c1cc(C2CC2)c(O[C@@H]2CCCN(Cc3ccnnc3)C2)cc1F` [Example 13, (R)-5-cyclopropyl-2-fluoro-N-(methylsulfonyl)-4-((1-(pyridazin-4-ylmethyl)piperidin-3-yl)oxy)benzamide], the IC50 was determined as 1.49 µM.

Turning to `CS(=O)(=O)NC(=O)c1cc(C2CC2)c(CN2CC(Oc3cc(Cl)cc(Cl)c3)C2)cc1F` [Example 544, 5-cyclopropyl-4-((3-(3,5-dichlorophenoxy)azetidin-1-yl)methyl)-2-fluoro-N-(methylsulfonyl)benzamide, trifluoroacetic acid salt], the IC50 amounted to 0.0153 µM.

In the case of `CS(=O)(=O)NC(=O)c1cc(C2CC2)c(CN2CCC(Oc3cccc(C(F)(F)F)c3)CC2)cc1F` [Example 501, 5-cyclopropyl-2-fluoro-N-(methylsulfonyl)-4-((4-(3-(trifluoromethyl)phenoxy)piperidin-1-yl)methyl)benzamide, trifluoroacetic acid salt], the IC50 is 0.0134 µM.

The assay is the same for the next values; noted with them: read-out: Ligand Binding Assay; 100 pM [3H]compound, membranes with hNav1.7 and β1 subunit, 18 h, room temperature.
Take `Cn1nc(C(F)(F)F)c(CN2CCC(COc3cc(F)c(C(=O)NS(=O)(=O)C4CC4)cc3C3CC3)CC2)c1Cl` [Example 357, 4-((1-((5-chloro-1-methyl-3-(trifluoromethyl)-1H-pyrazol-4-yl)methyl)piperidin-4-yl)methoxy)-5-cyclopropyl-N-(cyclopropylsulfonyl)-2-fluorobenzamide, trifluoroacetic acid salt]: the IC50 was determined as 0.013 µM.

As for `O=C(NS(=O)(=O)C1CC1)c1cc(C2CC2)c(O[C@@H]2CCCN(Cc3cc(Cl)cc(Cl)c3)C2)cc1F` [Example 3, (R)-5-cyclopropyl-N-(cyclopropylsulfonyl)-4-((1-(3,5-dichlorobenzyl)piperidin-3-yl)oxy)-2-fluorobenzamide], the IC50 stood at 0.0026 µM.

Take `O=C(NS(=O)(=O)N1CCC1)c1cc(C2CC2)c(O[C@@H]2CCCN(c3ccccn3)C2)cc1F` [Example 493, (R)—N-(azetidin-1-ylsulfonyl)-5-cyclopropyl-2-fluoro-4-((1-(pyridin-2-yl)piperidin-3-yl)oxy)benzamide]: the IC50 was 0.243 µM.

With `C[C@@H](c1ccc(OC(F)(F)F)cc1)N1CCC(C)(COc2cc(F)c(C(=O)NS(C)(=O)=O)cc2C2CC2)CC1` (single isomer, unassigned) [Example 248], the IC50 was 0.01 µM.

Turning to `CCS(=O)(=O)NC(=O)c1cc(C2CC2)c(OCC2(C)CN(c3ncc(C(F)(F)F)cc3Cl)C2)cc1F` [Example 482, 4-((1-(3-chloro-5-(trifluoromethyl)pyridin-2-yl)-3-methylazetidin-3-yl)methoxy)-5-cyclopropyl-N-(ethylsulfonyl)-2-fluorobenzamide], the IC50 was 0.0033 µM.

`CS(=O)(=O)NC(=O)c1cc(C2CC2)c(OCC2(F)CN(Cc3ccccc3)C2)cc1F` [Example 66, 4-((1-benzyl-3-fluoroazetidin-3-yl)methoxy)-5-cyclopropyl-2-fluoro-N-(methylsulfonyl)benzamide]: the IC50 is 0.091 µM.

For the molecule `COC[C@@H](c1cc(Cl)cc(Cl)c1)N1CCC[C@@H](Oc2cc(F)c(C(=O)NS(C)(=O)=O)cc2C2CC2)C1` [Example 447, 5-cyclopropyl-4-(((R)-1-((R)-1-(3,5-dichlorophenyl)-2-methoxyethyl)piperidin-3-yl)oxy)-2-fluoro-N-(methylsulfonyl)benzamide], the IC50 came out at 0.006 µM.

Turning to `CC1(COc2cc(F)c(C(=O)NS(C)(=O)=O)cc2C2CC2)CCN(Cc2ccc(F)cc2C(F)(F)F)CC1` [Example 130, 5-cyclopropyl-2-fluoro-4-((1-(4-fluoro-2-(trifluoromethyl)benzyl)-4-methylpiperidin-4-yl)methoxy)-N-(methylsulfonyl)benzamide], the IC50 amounted to 0.0035 µM.

With `CS(=O)(=O)NC(=O)c1cc(C2CC2)c(OCC2CC3CCC(C2)N3Cc2cc(Cl)cc(Cl)c2)cc1F` [Example 449, 5-cyclopropyl-4-(((1R,3R,5S)-8-(3,5-dichlorobenzyl)-8-azabicyclo[3.2.1]octan-3-yl)methoxy)-2-fluoro-N-(methylsulfonyl)benzamide], the IC50 was 0.0171 µM.

As to `O=C(NS(=O)(=O)CCC(F)(F)F)c1cc(C2CC2)c(OCC2CN(C(c3ccccc3)c3ccccc3)C2)cc1F` [Example 63, 4-((1-benzhydrylazetidin-3-yl)methoxy)-5-cyclopropyl-2-fluoro-N-((3,3,3-trifluoropropyl)sulfonyl)benzamide], the IC50 came out at 0.046 µM.

For `C[C@H](c1cc(Cl)cc(Cl)c1F)N1CCC(COc2cc(F)c(C(=O)NS(C)(=O)=O)cc2C2CC2)CC1` (single isomer, unassigned) [Example 237], the IC50 was 0.0029 µM.

For `C[C@H](c1ccc(Cl)c(Cl)c1)N1CCC(C)(COc2cc(F)c(C(=O)NS(C)(=O)=O)cc2C2CC2)CC1` (single isomer, unassigned) [Example 218], the IC50 stood at 0.0078 µM.

Consider `CS(=O)(=O)NC(=O)c1cc(C2CC2)c(OCC2CCN(C(c3ccccc3)c3cc(Cl)cc(Cl)c3)CC2)cc1F` (stereo not shown) [Example 412, 5-cyclopropyl-4-((1-((3,5-dichlorophenyl)(phenyl)methyl)piperidin-4-yl)methoxy)-2-fluoro-N-(methylsulfonyl)benzamide, trifluoroacetic acid salt], for which the IC50 amounted to 0.0015 µM.

In the case of `CS(=O)(=O)NC(=O)c1cc(C2CC2)c(OCC2CCN(S(=O)(=O)c3ccccc3C(F)(F)F)CC2)cc1F` [Example 370, 5-cyclopropyl-2-fluoro-N-(methylsulfonyl)-4-((1-((2-(trifluoromethyl)phenyl)sulfonyl)piperidin-4-yl)methoxy)benzamide], the IC50 is 0.0308 µM.

Take `CS(=O)(=O)NC(=O)c1cc(C2CC2)c(OCC2CCN(C(=O)c3ccc(Cl)cc3Cl)CC2)cc1F` [Example 257, 5-Cyclopropyl-4-((1-(2,4-dichlorobenzoyl)piperidin-4-yl)methoxy)-2-fluoro-N-(methylsulfonyl)benzamide]: the IC50 is 0.27 µM.

For the molecule `O=C(NS(=O)(=O)C1CC1)c1cc(C2CC2)c(OCC2CCN(S(=O)(=O)c3ccc(F)c(Cl)c3)CC2)cc1F` [Example 383, 4-((1-((3-chloro-4-fluorophenyl)sulfonyl)piperidin-4-yl)methoxy)-5-cyclopropyl-N-(cyclopropylsulfonyl)-2-fluorobenzamide], the IC50 was 0.0148 µM.

Take `CS(=O)(=O)NC(=O)c1cc(C2CC2)c(OCC2CCN(Cc3ccc(OC(F)(F)F)cc3)CC2)cc1F` [Example 135]: the IC50 is 0.0155 µM.

For the molecule `CCS(=O)(=O)NC(=O)c1cc(C2CC2)c(OCC2CCN([C@H](c3cc(Cl)cc(Cl)c3)C(F)F)CC2)cc1F` [Example 227, (R)-5-cyclopropyl-4-((1-(1-(3,5-dichlorophenyl)-2,2-difluoroethyl)piperidin-4-yl)methoxy)-N-(ethylsulfonyl)-2-fluorobenzamide], the IC50 was determined as 0.0081 µM.

As for `O=C(NS(=O)(=O)N1CCC1)c1cc(C2CC2)c(CN2CCO[C@H](Cc3ccc(Cl)c(Cl)c3)C2)cc1F` [Example 459, (R)—N-(azetidin-1-ylsulfonyl)-5-cyclopropyl-4-((2-(3,4-dichlorobenzyl)morpholino)methyl)-2-fluorobenzamide], the IC50 came out at 0.0125 µM.

For `C[C@H](c1ccc(F)cc1Cl)N1C[C@H](Oc2cc(F)c(C(=O)NS(C)(=O)=O)cc2C2CC2)CC(C)(C)C1` [Example 452, 4-(((R)-1-((R)-1-(2-chloro-4-fluorophenyl)ethyl)-5,5-dimethylpiperidin-3-yl)oxy)-5-cyclopropyl-2-fluoro-N-(methylsulfonyl)benzamide, trifluoroacetic acid salt], the IC50 was found to be 0.0432 µM.

Turning to `CCS(=O)(=O)NC(=O)c1cc(C2CC2)c(OCCC2CCN(Cc3cc(Cl)cc(Cl)c3)CC2)cc1F` [Example 303, 5-cyclopropyl-4-(2-(1-(3,5-dichlorobenzyl)piperidin-4-yl)ethoxy)-N-(ethylsulfonyl)-2-fluorobenzamide, trifluoroacetic acid salt], the IC50 stood at 0.0065 µM.

Take `CS(=O)(=O)NC(=O)c1cc(C2CC2)c(OCC2CCN(C(CF)c3cc(Cl)cc(Cl)c3)CC2)cc1F` (stereo not shown) [Example 358, 5-cyclopropyl-4-((1-(1-(3,5-dichlorophenyl)-2-fluoroethyl)piperidin-4-yl)methoxy)-2-fluoro-N-(methylsulfonyl)benzamide, trifluoroacetic acid salt]: the IC50 stood at 0.014 µM.

Turning to `CS(=O)(=O)NC(=O)c1cc(C2CC2)c(OCC2CCN(Cc3cc(Cl)cc(C(F)(F)F)c3)CC2)cc1F` [Example 137, 4-((1-(3-Chloro-5-(trifluoromethyl)benzyl)piperidin-4-yl)methoxy)-5-cyclopropyl-2-fluoro-N-(methylsulfonyl)benzamide], the IC50 was determined as 0.00205 µM.

Turning to `C[C@H](c1cc(Cl)cc(Cl)c1)N1[C@@H]2CC[C@H]1C[C@H](COc1cc(F)c(C(=O)NS(C)(=O)=O)cc1C1CC1)C2` [Example 353, 5-cyclopropyl-4-(((1R,3S,5S)-8-((R)-1-(3,5-dichlorophenyl)ethyl)-8-azabicyclo[3.2.1]octan-3-yl)methoxy)-2-fluoro-N-(methylsulfonyl)benzamide, trifluoroacetic acid salt], the IC50 was 0.011 µM.

Take `CS(=O)(=O)NC(=O)c1cc(C2CC2)c(OCC2CCN(Cc3ccc(Br)cc3F)CC2)cc1F` [Example 589, 4-((1-(4-bromo-2-fluorobenzyl)piperidin-4-yl)methoxy)-5-cyclopropyl-2-fluoro-N-(methylsulfonyl)benzamide]: the IC50 stood at 0.011 µM.

Turning to `COc1ccc(CN2CCC(COc3cc(F)c(C(=O)NS(C)(=O)=O)cc3C3CC3)CC2)cc1F` [Example 94, 5-Cyclopropyl-2-fluoro-4-((1-(3-fluoro-4-methoxybenzyl)piperidin-4-yl)methoxy)-N-(methylsulfonyl)benzamide], the IC50 is 0.15 µM.

Values taken from patent US9546164B2 (GENENTECH, INC., priority 2013, dated 2017).
